How the values were obtained:
[1] = target: T1, purified sickle cell hemoglobin (HbS) (Homo sapiens, UniProt P68871+P69905, E7V); assay: Binding affinity to purified HbS by Surface Plasmon Resonance (SPR); conditions: crosslinked biotinylated HbS, 1:1 binding model
T1 construct: HbS was obtained from the blood of homozygous S/S patients; from tissue; host or cells: red blood cells of homozygous S/S patients
Experimental: Binding Affinity, Kd (uM)
The binding affinity for compounds to purified sickle cell hemoglobin (HbS) was determined using Surface Plasmon Resonance (SPR). Patient Sickle Cell blood was obtained from Boston Children's Hospital in accordance with Institutional Review Board protocols. HbS was obtained from the blood of homozygous S/S patients, and purified using the method described in: Antonini and Brunori, Hemoglobin and Myoglobin in their Reactions with Ligands. Amsterdam, London, North-Holland Publishing Company, 1971. Whole blood was separated into red blood cell and plasma components by centrifugation, after which the plasma was decanted and discarded. Packed red blood cells were washed with normal saline (0.9% NaCl) and then lysed by 2:1 dilution with cold deionized water. The hemolysate was centrifuged to remove cellular debris, and further purified with the addition of Drabkin's Buffer (2.8 M potassium phosphate), and centrifugation with Celite®. Organic phosphates (2,3-BPG) were removed via gel filtration with Sephadex® G-25. HbS and wild-type hemoglobin, hemoglobin A (HbA), were separated by […], using diethylaminoethyl (DEAE)-Sepharose® fast flow, and eluted using a pH gradient from pH 8.5-pH 7.5. Purity of the resulting HbS and HbA was determined by native gel electrophoresis and HbS fractions used further.
To stabilize the tetrameric structure of hemoglobin, HbS was crosslinked between the beta subunits (Lys82-Lys82) using bis(3,5-dibromosalicyl) fumarate, as described in: Shibayama N. et al, J Am Chem Soc 2014, 136, 13, 5097-5105 and Shibayama N. et al, Biochemistry 1991, 39, 33, 8158-8165). Crosslinked HbS was subsequently biotynylated and captured on a custom made Streptavidin sensor to achieve protein density of 4000 to 5000 resonance units (RUs) on the surface. Compound binding to HbS using SPR was tested on Sierra Sensors MASS-1 instrument. The running buffer contained 100 mM Potassium Phosphate, pH 7.5, 0.005% Tween-20, 1 mM ethylenediaminetetraacetic acid (EDTA), 0.1 mg/mL bovine serum albumin with 1% DMSO. Compound samples were injected at a flow rate of 30 μL/min for 2 minutes association and at least 5 minutes of dissociation time. A 2- or 3-fold dilution series containing at least 4 concentrations were tested for each compound. The dose range was selected based on the activity of the compounds in biochemical assays, when available. Multiple blank injections of running buffer were run before and after each compound series to allow blank subtraction for compound data in the analysis software. Positive controls were run in each experiment to monitor and maintain the activity of HbS on the surface. A DMSO curve was run at the beginning of each data set to apply an excluded volume correction to the data during analysis. The data were processed and analyzed using Sierra Sensors and Scrubber 2.0 software. The binding affinities (dissociation constant Kd) were calculated by fitting the sensorgrams to a 1:1 binding model.

HbS = target: T2, HbS (Homo sapiens, UniProt P68871+P69905, E7V); assay: 'R'-'T' assay (conversion of oxy HbS to deoxy HbS under deoxygenating conditions); type: biochemical; conditions: 50% inhibition of HbS 'R'-'T' conversion; 3 uM HbS, <1% O2
T2 construct: HbS was obtained from the blood of homozygous S/S patients; from tissue; host or cells: red blood cells of homozygous S/S patients
Experimental: Conversion from oxy (R, relaxed state) to deoxy (T, tense state) HbS in the presence of compound was performed to determine the ability of compounds to stabilize the oxy (R) state under deoxygenating conditions. The assay run was similar to the ‘Oxygen dissociation assay’ described in Oksenberg et al, Br J Haematology, 2016, 175, 141-153.
Assay ready compound plates were prepared by first preparing a master serial dilution plate from a 30 mM initial compound stock in 100% DMSO. From this master serial dilution plate, 167 nL of the desired compound concentration was delivered to the assay ready plates using acoustical dispensing. Plates were frozen at −20° C. until needed. Purified HbS-O2 (i.e. oxy HbS) was diluted to 3 uM in 100 mM potassium phosphate buffer, pH=7.4. 50 uL of 3 uM stock solution was added to each well of the assay ready plate and mechanically mixed eight times. Following mixing the plates were covered and incubated at room temperature for one hour with moderate shaking. Following incubation, the plates were placed in a deoxygenated environment (<1% O2) for two hours, and the conversion to deoxy HbS monitored as a function of time. Oxygenated and deoxygenated forms of hemoglobin were detected using the absorbance of the Soret peaks at 415 and 430 nm respectively, and absorbance measurements (optical density, OD) were taken at 0, 90 and 120 minutes. Background absorbance for correction was collected at 700 nm.
Data were analyzed by first subtracting baseline absorbance at 700 nm from 415 nm and 430 nm data at each timepoint, and then taking the ratio of 415/430 nm data (Ratio=[(OD415−OD700)/(OD430−OD700)]. The effect at each timepoint was calculated using the ratios from the previous calculation at time 0 and each time point of interest (Effect^time x=Ratio^time x/Ratio^time 0). Percent effect was calculated by comparing the effects of compound versus HbS only with the effects observed by the positive control compound tucaresol (percent effect=[(effect^time x compound−effect^time x HbS)/(effect^time x tucaresol−effect^time x HbS)]×100). Data were reported as the percent effect for a single point. Calculations to determine the concentration of compound for 50% inhibition (IC50 (uM)) of the HbS ‘R’-‘T’ conversion were based on the percent effect at varying compound concentration.

Kd [1]	IC50 (HbS)	SMILES
211 nM	5860 nM	C[C@H](Oc1cc2cc(F)ccc2nc1N)c1cc(C(=O)NCC(=O)O)ccc1-n1cccn1 [Example 10, N-[3-{(1S)-1-[(2-amino-6-fluoroquinolin-3-yl)oxy]ethyl}-4-(1H-pyrazol-1-yl)benzoyl]glycine]
9 nM	3710 nM	C[C@H](Oc1cc2cc(F)ccc2nc1N)c1cc2c(cnn2CC(=O)O)cc1-n1cccn1 [Example 67, [6-{(1S)-1-[(2-amino-6-fluoroquinolin-3-yl)oxy]ethyl}-5-(1H-pyrazol-1-yl)-1H-indazol-1-yl]acetic Acid]
38 nM	4480 nM	C[C@H](Oc1cc2cc(F)ccc2nc1N)c1cc(C(=O)NCCO)ccc1-n1cccn1 [Example 12, 3-{(1S)-1-[(2-amino-6-fluoroquinolin-3-yl)oxy]ethyl}-N-(2-hydroxyethyl)-4-(1H-pyrazol-1-yl)benzamide]
464 nM	6220 nM	C[C@H](Oc1cc2cc(F)ccc2nc1N)c1nc(C(=O)O)c(F)cc1-n1cccn1 [Example 39, 6-{(1S)-1-[(2-amino-6-fluoroquinolin-3-yl)oxy]ethyl}-3-fluoro-5-(1H-pyrazol-1-yl)pyridine-2-carboxylic Acid]
271 nM	7180 nM	C[C@H](Oc1cc2cc(F)ccc2nc1N)c1cc(CC(=O)O)ccc1-n1cccn1 (single isomer, unassigned) [Example 8]

The remaining lines, values behind:

SMILES	Kd [1]	IC50 (HbS)
C[C@H](Oc1cc2cc(Br)ccc2nc1N)c1ncc(F)cc1-n1cccn1 [Example 25, 6-bromo-3-{(1S)-1-[5-fluoro-3-(1H-pyrazol-1-yl)pyridin-2-yl]ethoxy}quinolin-2-amine]	67 nM	4780 nM
C[C@H](Oc1cc2cc(F)cc(F)c2nc1N)c1ncc(F)cc1-n1cccn1 [Example 38, 6,8-difluoro-3-{(1S)-1-[5-fluoro-3-(1H-pyrazol-1-yl)pyridin-2-yl]ethoxy}quinolin-2-amine]	45 nM	3620 nM
COc1ccc(-n2cccn2)c([C@H](C)Oc2cc3cc(F)ccc3nc2N)n1 [Example 57, 6-fluoro-3-{(1S)-1-[6-methoxy-3-(1H-pyrazol-1-yl)pyridin-2-yl]ethoxy}quinolin-2-amine]	184 nM	4840 nM
COc1ccc(-n2cccn2)c([C@H](C)Oc2cc3cc(F)cc(F)c3nc2N)n1 [Example 56, 6,8-difluoro-3-{(1S)-1-[6-methoxy-3-(1H-pyrazol-1-yl)pyridin-2-yl]ethoxy}quinolin-2-amine]	53 nM	5680 nM
C[C@H](Oc1cc2cc(F)ccc2nc1N)c1cc(C(=O)NCCCO)ccc1-n1cccn1 [Example 13, 3-{(1S)-1-[(2-amino-6-fluoroquinolin-3-yl)oxy]ethyl}-N-(3-hydroxypropyl)-4-(1H-pyrazol-1-yl)benzamide]	65 nM	4330 nM
C[C@H](Oc1cc2cc(F)ccc2nc1N)c1cc(NS(C)(=O)=O)ccc1-n1cccn1 [Example 18, N-[3-{(1S)-1-[(2-amino-6-fluoroquinolin-3-yl)oxy]ethyl}-4-(1H-pyrazol-1-yl)phenyl]methanesulfonamide]	194 nM	7160 nM
C[C@H](Oc1cc2cc(F)c(Cl)cc2nc1N)c1ncc(F)cc1-n1cccn1 [Example 31, 7-chloro-6-fluoro-3-{(1S)-1-[5-fluoro-3-(1H-pyrazol-1-yl)pyridin-2-yl]ethoxy}quinolin-2-amine]	69 nM	4960 nM
C[C@H](Oc1cc2cc(F)cc(F)c2nc1N)c1cc(C(=O)NS(C)(=O)=O)ccc1-n1cccn1 [Example 24, 3-{(1S)-1-[(2-amino-6,8-difluoroquinolin-3-yl)oxy]ethyl}-N-(methylsulfonyl)-4-(1H-pyrazol-1-yl)benzamide]	15 nM	4660 nM
C[C@H](Oc1cc2cc(C(N)=O)ccc2nc1N)c1nc(CO)ccc1-n1cccn1 [Example 55, 2-amino-3-{(1S)-1-[6-(hydroxymethyl)-3-(1H-pyrazol-1-yl)pyridin-2-yl]ethoxy}quinoline-6-carboxamide]	406 nM	5710 nM

Reference: patent US11014908B2, “Chemical compounds” (Pfizer Inc., priority 2018, dated 2021)
